Results reported in patent US7250431B2, “Thiazole derivatives” (Hoffmann-La Roche Inc., priority 2003, dated 2007).

Target: T1, mouse NPY5-receptor (mNPY5) (Mus musculus, UniProt O70342)
T1 construct: The full-length cDNA encoding the mouse NPY5 (mNPY5) receptor was amplified from mouse brain cDNA; expressed in transfected cells; membranes used
T1 sequence (O70342 1-466): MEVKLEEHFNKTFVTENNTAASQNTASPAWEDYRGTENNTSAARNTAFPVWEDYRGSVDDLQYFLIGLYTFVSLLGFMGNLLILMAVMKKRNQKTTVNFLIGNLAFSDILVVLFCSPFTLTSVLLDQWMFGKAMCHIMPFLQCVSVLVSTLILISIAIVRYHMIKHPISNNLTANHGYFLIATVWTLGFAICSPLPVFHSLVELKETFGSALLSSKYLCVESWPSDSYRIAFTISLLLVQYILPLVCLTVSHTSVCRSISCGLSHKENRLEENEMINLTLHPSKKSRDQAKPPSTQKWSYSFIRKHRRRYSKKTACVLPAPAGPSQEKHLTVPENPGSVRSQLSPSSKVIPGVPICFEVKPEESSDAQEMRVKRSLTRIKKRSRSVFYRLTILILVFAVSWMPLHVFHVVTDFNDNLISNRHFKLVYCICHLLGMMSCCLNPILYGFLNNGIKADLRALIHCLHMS
Test: Radioligand competition binding
Conditions: membranes of HEK293 cells expressing recombinant mNPY5; 100 pM [125I]labelled peptide YY; 1 h at 22° C.; read-out: NPY5-R (mouse) IC50
Source text: The full-length cDNA encoding the mouse NPY5 (mNPY5) receptor was amplified from mouse brain cDNA using specific primers, designed based on the published sequence, and Pfu DNA-Polymerase. The amplification product was subcloned into the mammalian expression vector pcDNA3 using Eco RI and XhoI restriction sites. Positive clones were sequenced and one clone, encoding the published sequence was selected for generation of stable cell clones.
Human embryonic kidney 293 (HEK293) cells were transfected with 10 μg mNPY5 DNA using the lipofectamine reagent. Two days after transfection, geneticin selection (1 mg/ml) was initiated and several stable clones were isolated. One clone was further used for pharmacological characterization.
Human embryonic kidney 293 cells (HEK293), expressing recombinant mouse NPY5-receptor (mNPY5) were broken by three freeze/thawing cycles in hypotonic Tris buffer (5 mM, pH 7.4, 1 mM MgCl2), homogenized and centrifuged at 72,000×g for 15 min. The pellet was washed twice with 75 mM Tris buffer, pH 7.4, containing 25 mM MgCl2 and 250 mM sucrose, 0.1 mM phenylmethylsulfonylfluoride and 0.1 mM 1,10-pheneanthrolin, resuspended in the same buffer and stored in aliquots at −80° C. Protein was determined according to the method of Lowry using bovine serum albumine (BSA) as a standard. […]

Row | Compound | IC50 [nM]
1 | Cc1ccccc1C(=O)c1cnc(Nc2ccc(NS(=O)(=O)c3cccc(F)c3)cc2)s1 [Example 5, 3-Fluoro-N-{4-[5-(2-methyl-benzoyl)-thiazol-2-ylamino]-phenyl}-benzenesulfonamide] | 0.74
2 | Cc1ccccc1C(=O)c1cnc(Nc2cccc(NS(=O)(=O)c3cccs3)c2)s1 [Example 23, Thiophene-2-sulfonic acid {3-[5-(2-methyl-benzoyl)-thiazol-2-ylamino]-phenyl}-amide] | 0.54
3 | Cc1ccccc1C(=O)c1cnc(Nc2ccc(CNS(=O)(=O)c3cc(F)ccc3C)cc2)s1 [Example 37, 5-Fluoro-2-methyl-N-{4-[5-(2-methyl-benzoyl)-thiazol-2-ylamino]-benzyl}-benzenesulfonamide] | 0.99
